67 molecules from PubChem BioAssay AID720588 (Broad Institute, 2013) can be followed below.

Activity calls are given as the source filed them.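 The calls were made as follows: active = fitted curve falls past a set limit of signal loss at no more than twice the top dose; inconclusive = flat fit between 30 and 70% signal loss, or poor fit; inactive = signal rise, flat within 30%, or crossing too high.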

One assay can be described thus: HEK293T cell cytotoxicity, dose response, cytotoxicity control, CellTiter-Glo luminescence, cherry-pick, set 3 (AID 720588). The settings on record: HEK293T viability, CellTiter-Glo ATP luminescence, 72 h; at 23.5 µM (top of the series).
Take `COC(=O)C[C@@H]1CC[C@@H]2[C@@H](COc3ccc(NC(=O)Nc4ccccc4C)cc3C(=O)N2C)O1`: the activity change, negative = cytotoxicity is 19.2% (inactive). On the same count and under the same terms, to `C[C@@H]1CN([C@@H](C)CO)C(=O)c2cccc(NC(=O)Nc3cccc4ccccc34)c2O[C@@H]1CN(C)Cc1ccc(C(=O)Nc2ccccc2N)cc1` belongs -11.5% (inactive).

As to `C[C@H](CO)N1C[C@H](C)[C@H](CN(C)Cc2ccccc2)Oc2ccc(NC(=O)CCCCCC(=O)Nc3ccccc3N)cc2CC1=O`, the activity change, negative = cytotoxicity is -0.084% (inactive).

The assay is the same for the next values; noted with them: HEK293T viability, CellTiter-Glo ATP luminescence, 72 h; at 26 µM (top of the series).
As for `CCCCCCN(C(=O)CCCCCN1C(=O)NC(c2ccc(Cl)cc2)C(C(=O)OCc2ccccc2)=C1C)C(C(=O)NCCCC)c1ccc(OCC(=O)OC)c(C(=O)OC)c1` (configuration not stated), the activity change, negative = cytotoxicity is -3.96% (inactive).

On to `CCNC(=O)c1cc2c(c(-c3cccc(-c4cccc(OC)c4)c3)n1)[C@H](CCO)N([S@@](=O)C(C)(C)C)C2`, for which the activity change, negative = cytotoxicity is -17.3% (inactive). On the same count and under the same terms, to `CN(C)Cc1c(O)ccc2c1O/C(=C\C=C\c1ccccc1)C2=O` belongs -32.1% (inactive); to `C[C@H](CO)N1C[C@H](C)[C@H](CN(C)Cc2ccc(C(=O)Nc3ccccc3N)cc2)Oc2ccc(N(C)C)cc2C1=O`, -25.7% (inactive). Still for that read-out and setting: to `COC(=O)C[C@@H]1CC[C@@H]2[C@H](COc3ccc(NC(=O)c4ccc(C(F)(F)F)cc4)cc3C(=O)N2C)O1` belongs -2.65% (inactive). Regarding `COCc1cc(C)nc2sc(C(=O)NCCO)c(-n3cccc3)c12`, the activity change, negative = cytotoxicity was 12.7% (inactive).

For the molecule `OCCN1CCN(C(=S)c2ccc(-c3ccccc3)cc2)CC1`, the activity change, negative = cytotoxicity is -3.37% (inactive). Same read-out and setting: to `Cc1ccc(S(=O)(=O)Nc2ccc3c(c2)C(=O)N([C@H](C)CO)C[C@@H](C)[C@@H](CN(C)Cc2ccc(C(=O)Nc4ccccc4N)cc2)O3)cc1` belongs -2.74% (inactive); to `CCC1=Nc2cc(C(=O)NCC3CCCO3)ccc2Sc2ccc(Br)cc21` (configuration not stated), -27.1% (inactive). Same read-out and setting: to `CC1=NC(=O)C(N=Nc2cccc(C(=O)O)c2)N1c1ccccc1` (configuration not stated) belongs -10% (inactive); to `COc1ccc(C2c3cc4c(cc3OC(NNC(N)=O)C2C)OCO4)cc1` (configuration not stated), -16.2% (inactive); to `C(=N\Nc1ccc2ccccc2n1)/c1ccc2c(c1)OCO2`, -17.5% (inactive). Still for that read-out and setting: to `C/C=C/c1ccc([C@H]2[C@@H](CO)N3C(=O)CN(S(=O)(=O)c4cccc(F)c4)C[C@@H]23)cc1` belongs 34.3% (inactive).

`Cc1c(Cl)cccc1NC(=O)CCC(=O)N/N=C/c1ccc[nH]1`: the activity change, negative = cytotoxicity was 12% (inactive). The same measure, in the same setting: to `C[C@H]1CN([C@@H](C)CO)C(=O)Cc2cc(NC(=O)CCCCCC(=O)Nc3ccccc3N)ccc2O[C@H]1CN(C)Cc1ccc(C(F)(F)F)cc1` belongs -19% (inactive); to `COc1cc(/C=N/NC(=O)c2csc3c2CCCC3)cc(OC)c1O`, 0.867% (inactive); to `COC(=O)C[C@@H]1CC[C@@H]2[C@@H](COc3ccc(NC(=O)Nc4ccc(C#N)cc4)cc3C(=O)N2C)O1`, 47.6% (inactive). On the same count and under the same terms, to `O=C(NCc1cccnc1)C1Cc2c(-c3ccc(Cl)cc3)ccnc2O1` (configuration not stated) belongs -17.5% (inactive). Turning to `Cc1ccc(C(CC(=O)O)Nc2nc(N3CCOCC3)nc(N3CCOCC3)n2)cc1` (configuration not stated), the activity change, negative = cytotoxicity was 25.6% (inactive).

As for `COc1ccc(/C=C2\SC(=S)N(CCCC(=O)NC3CCCC3)C2=O)cc1OC`, the activity change, negative = cytotoxicity was -24.3% (inactive). Still for that read-out and setting: to `COc1ccc(/C=N/Nc2ccc(C(=O)O)cc2)cc1Br` belongs -6.35% (inactive). Consider `O=C(CCCN1C(=O)/C(=C/c2ccccc2Cl)SC1=S)NNC(=O)c1ccc(Cl)cc1Cl`, for which the activity change, negative = cytotoxicity is 12.7% (inactive). The same measure, in the same setting: to `O=C(Nc1ccc(OC(=O)N2CCCCC2)cc1)N1CCOCC1` belongs -2.87% (inactive). For `O=C(CCCN1C(=O)/C(=C/c2ccccc2Cl)SC1=S)NNC(=O)c1ccc(Cl)cc1`, the activity change, negative = cytotoxicity was 24.3% (inactive).

As to `CCOc1ccc(/C=C2\CCc3ccccc3C2=O)cc1`, the activity change, negative = cytotoxicity was -4.04% (inactive). On the same count and under the same terms, to `CCc1ccc(/C=C2\SC(=S)N(CCC(=O)Nc3cc(C)on3)C2=O)cc1` belongs 5.29% (inactive); to `Cc1ccc(/C=C2\SC(=S)N(CCC(=O)NNC(=O)c3ccccc3O)C2=O)cc1`, 24.1% (inactive); to `C(=Cc1c[nH]c2ccccc12)c1ccc2ccccc2n1`, -26.3% (inactive). As for `CCCCNC(=O)C(c1ccc(OCC(=O)OC)c(C(=O)OC)c1)N(CCOC)C(=O)CCCCCN1C(=O)NC(c2ccc(-c3ccccc3)cc2)C(C(=O)OCc2ccccc2)=C1C` (configuration not stated), the activity change, negative = cytotoxicity was 2.6% (inactive). As for `O=C(CN1C(=O)c2ccccc2S1(=O)=O)c1ccc(F)cc1`, the activity change, negative = cytotoxicity was 6.26% (inactive). The same measure, in the same setting: to `CCCNC(=O)N1[C@H](C#N)[C@H](c2ccc(C#Cc3ccc(F)cc3)cc2)[C@H]1CO` belongs 14.3% (inactive); to `COc1ccc(CCC(C)NCC2CCCCC2)cc1` (configuration not stated), 4.78% (inactive). Still for that read-out and setting: to `COc1ccc(C(=O)CN2C(=O)c3ccccc3S2(=O)=O)cc1` belongs -13.5% (inactive). The same measure, in the same setting: to `COc1cccc(CN2CCC2(C)C(=O)Nc2cccc3cccnc23)c1F` (configuration not stated) belongs -6.02% (inactive); to `Cc1ccc(S(=O)(=O)N(C)C[C@@H]2Oc3cc(C#Cc4ccncc4)ccc3S(=O)(=O)N([C@@H](C)CO)C[C@H]2C)cc1`, -17% (inactive). As to `Cc1c(CCOC(=O)CC23CC4CC(CC(C)(C4)C2)C3)sc[n+]1CC(=O)c1ccccc1`, the activity change, negative = cytotoxicity was 12.1% (inactive). As for `C[C@@H]1CN([C@H](C)CO)C(=O)Cc2cc(N(C)C)ccc2O[C@H]1CN(C)Cc1ccc(C(=O)Nc2ccccc2N)cc1`, the activity change, negative = cytotoxicity is -25.9% (inactive). Consider `CCN1CCN(/C=N/c2nc3c(s2)CCCC3)CC1`, for which the activity change, negative = cytotoxicity was -6.91% (inactive).

As to `C/C(=N\N(c1ccccc1)c1ccccc1)c1ccco1`, the activity change, negative = cytotoxicity was -14.9% (inactive). Same read-out and setting: to `CN1C(=O)c2cc(NC(=O)c3ccc(Cl)cc3)ccc2OC[C@@H]2O[C@@H](CC(=O)NCc3cccc(F)c3)CC[C@H]21` belongs -5.64% (inactive); to `C=CCOc1ccccc1C(=O)/C=C1/C(=O)Nc2ccccc21`, -8.17% (inactive). On the same count and under the same terms, to `Cc1csc(NC(=O)CCc2c(C)nc3cc(-c4ccc(Cl)cc4)nn3c2C)n1` belongs -13.4% (inactive); to `c1ccc(-c2ccc([C@H]3[C@H]4CNC[C@@H]3N4Cc3cc(-c4ccccc4)on3)cc2)cc1`, 26.6% (inactive); to `COc1ccc(NS(=O)(=O)c2cc(NC(=O)CNC(=O)c3cccc(OC)c3)ccc2C)cc1`, -20.6% (inactive). On to `COc1ccc(/C=C2/SC(=S)N(CCCC(=O)Nc3ccccc3C(=O)O)C2=O)cc1`, for which the activity change, negative = cytotoxicity was -21% (inactive). Turning to `COc1cc(C(=O)N2CCC(N3CCN(C)CC3)CC2)ccc1Nc1ncc2c(n1)N(C)c1ccccc1C(=O)N2C`, the activity change, negative = cytotoxicity was -1.13% (inactive). On to `COC(=O)C[C@@H]1CC[C@@H]2[C@H](COc3ccc(NC(=O)c4ccc(F)cc4)cc3C(=O)N2C)O1`, for which the activity change, negative = cytotoxicity was 76.4% (inactive). Same read-out and setting: to `C[C@@H]1CN([C@@H](C)CO)C(=O)c2cccc(NC(=O)CCCCCC(=O)Nc3ccccc3N)c2O[C@@H]1CN(C)Cc1ccc(Oc2ccccc2)cc1` belongs -1.35% (inactive); to `COc1cc(OC)cc(-c2cc3nc(C)c(CCC(=O)NCc4ccccc4)c(C)n3n2)c1`, -4.7% (inactive). Still for that read-out and setting: to `CCOc1ccc2nc(NC3=NC(c4ccc(OC)cc4)CC(=O)N3)nc(C)c2c1` (configuration not stated) belongs -23.2% (inactive). On the same count and under the same terms, to `CCCc1cc(=O)oc2c3c(c4c(c12)OC(C)(C)C=C4)OC(C)C(C)C3O` (configuration not stated) belongs -7.17% (inactive); to `CCOC(=O)c1c(-c2ccc(C)cc2)csc1NC(=O)CCN1CCOCC1`, 5.98% (inactive); to `CCc1ccc2oc(C(=O)N3CCN(c4ccccc4OC)CC3)cc(=O)c2c1`, -13.2% (inactive). As for `O=C(CNC(=O)Cc1ccccc1)N=Nc1c(O)n(Cc2ccc3c(c2)OCO3)c2ccccc12`, the activity change, negative = cytotoxicity is -23.2% (inactive). The same measure, in the same setting: to `O=C(O)c1ccc(N/N=C/c2cc(Br)cs2)cc1` belongs -9.61% (inactive); to `COc1ccc(C2=NNC(=Nc3cc(S(=O)(=O)N(C)C)ccc3C)SC2)c(OC)c1`, -17.5% (inactive); to `C[C@@H]1CCCCO[C@@H](CN(C)C(=O)Cc2ccccc2)[C@@H](C)CN([C@@H](C)CO)C(=O)c2cc(NS(=O)(=O)c3ccc(F)cc3)ccc2O1`, 4.58% (inactive). Same read-out and setting: to `O=C1C(=O)N(CCS(=O)(=O)c2ccccc2)c2ccc(Cl)cc21` belongs -2.19% (inactive); to `COc1ccc2oc(C(=O)NCCc3ccccc3)c(C)c2c1`, -22.1% (inactive); to `CCOc1ccc(C(c2c(NC(=O)c3ccccc3)sc(C)c2C)N2CCN(CCO)CC2)cc1` (configuration not stated), -15.2% (inactive). Still for that read-out and setting: to `Cc1ccc(NC(=O)CCN2CCCCC2)cc1` belongs 17.2% (inactive); to `Cc1ccc(Cl)cc1NC(=O)Cn1cc(C(F)(F)F)cc(Cl)c1=O`, 0.88% (inactive); to `Cc1ccc(C(=O)CN2C(=O)c3ccccc3S2(=O)=O)cc1`, -1.54% (inactive). Consider `CN(C)c1ccc2c(c1)[C@@H]1C[C@@H](CC(=O)NCc3ccc(Oc4ccccc4)cc3)O[C@H](CO)[C@@H]1O2`, for which the activity change, negative = cytotoxicity was -15.8% (inactive).
